Assay results from patent US9743646B2, “Method of establishing isogenic multi-xenograft model and the use thereof” (Crown Bioscience Inc. (Taicang), priority 2014, dated 2017).

Columns and labels:
Assay type in all cases: in vivo, Nude mice
[1] = system: SW48-parental xenograft (HD PAR-006, KRAS WT); assay: Tumor volume of SW48-parental xenograft in isogenic dual-xenograft mice; settings: Erlotinib 50 mg/kg p.o. once daily, 14 days, vs saline
Protocol: The SW48 series colorectal adenocarcinoma cells were obtained from Horizon Discovery Ltd (see below in Table 1 for Catalogue number details), and maintained in vitro as a monolayer culture in McCoy's 5A medium supplemented with 10% heat inactivated fetal bovine serum, 2 mM L-glutamine, with or without G418, at 37° C. in an atmosphere of 5% CO2 in air. The tumor cells were routinely subcultured every 3-5 days by trypsin-EDTA treatment. Cells growing in an exponential growth phase were harvested and counted for tumor inoculation. HD 103-002 cell line was derived from parental SW48 cell line HD PAR-006 with heterozygous knock-in of KRAS activating mutation-G13D; HD 103-007 cell line was derived from parental SW48 cell line HD PAR-006 with heterozygous knock-in of KRAS activating mutation-G12V. […]
(§1) The major endpoint was to evaluate the tumor growth. Tumor sizes were measured twice weekly in two dimensions using a caliper, and the volume were expressed in mm3 using the formula: V=0.5 a×b^2, where a and b are the long and short diameters of the tumor, respectively.

[2] = system: SW48-KRAS (G13D/+) xenograft (HD 103-002); assay: Tumor volume of SW48-KRAS (G13D/+) xenograft in isogenic dual-xenograft mice
Protocol: (§2) The SW48 series colorectal adenocarcinoma cells were obtained from Horizon Discovery Ltd (see below in Table 1 for Catalogue number details), and maintained in vitro as a monolayer culture in McCoy's 5A medium supplemented with 10% heat inactivated fetal bovine serum, 2 mM L-glutamine, with or without G418, at 37° C. in an atmosphere of 5% CO2 in air. The tumor cells were routinely subcultured every 3-5 days by trypsin-EDTA treatment. Cells growing in an exponential growth phase were harvested and counted for tumor inoculation. HD 103-002 cell line was derived from parental SW48 cell line HD PAR-006 with heterozygous knock-in of KRAS activating mutation-G13D; HD 103-007 cell line was derived from parental SW48 cell line HD PAR-006 with heterozygous knock-in of KRAS activating mutation-G12V.
(§3) Each mouse is grafted subcutaneously at the left and right flank with SW48 tumor cells (1×10^7 cells) in 0.1 ml of PBS for tumor development, among which 15 mouse are grafted with 1×10^7HD PAR-006 cells at their left flank and with 1×10^7 HD 103-002 cells at their right flank, and the other 15 mouse are grafted with 1×10^7 HD PAR-006 cells at their left flank and with 1×10^7 HD103-007 cells at their right flank. Mice with xenografts are then allow sufficient time (in present embodiment, around 5-8 days) to develop solid tumor.
(§4) Isogenic dual-xenograft mice produced in accordance to the methods described in Example 1 were used to evaluate test agents for their efficacy on the disease associated with mutations of gene. More specifically, mice with different KRAS mutations were treated with EGFR inhibitors to address the question of resistant phenotypes elicited by different KRAS mutations. This design allows direct comparison of wild type and mutant isogenic pairs for treatment responses that are associated with the defined genetic variations.
as §1

[3] = system: SW48-KRAS (G12V/+) xenograft (HD 103-007); assay: Tumor volume of SW48-KRAS (G12V/+) xenograft in isogenic dual-xenograft mice
Protocol: as §2, §3, §4, §1

[4] = Erlotinib 50 mg/kg p.o. once daily, 14 days
[5] = Erlotinib 50 mg/kg, p.o., Qd x 14, SW48 KRAS(G13D/+), tumor volume
[6] = Erlotinib 50 mg/kg, p.o., Qd x 14, SW48 KRAS(G12V/+), tumor volume

## C#Cc1cccc(Nc2ncnc3cc(OCCOC)c(OCCOC)cc23)c1 [Erlotinib]
[1]; dual model with SW48-KRAS (G12V/+)
  effect on tumor volume of the SW48-parental xenograft (FIG. 2A): reduced
[1]; dual model with SW48-KRAS (G13D/+)
  effect on tumor volume of the SW48-parental xenograft (FIG. 1A): significantly reduced
[2]; [4]
  response of SW48 KRAS (G13D/+) compared to the parental line: remains sensitive
[2]; Erlotinib 50 mg/kg p.o. once daily, 14 days, vs saline
  effect on tumor volume of the SW48-KRAS (G13D/+) xenograft (FIG. 1B): significantly reduced
[2]; [5]
  T/C on Day 21: 24%
  TGI on Day 21: 76%
[3]; [4]
  response of SW48 KRAS (G12V/+) compared to the parental line: resistant
[3]; Erlotinib 50 mg/kg p.o. once daily, 14 days, compared with parental xenograft
  reduction on the tumor volume of the SW48-KRAS (G12V/+) xenograft (FIG. 2B): not as significant as on the SW48-KRAS-parental xenograft
[3]; [6]
  T/C on Day 21: 86%
  TGI on Day 21: 14%
